The record followed here is patent US20240049707A1, “PESTICIDE COMPOSITIONS OF LICOCHALCONE C” (METABOLIC INSIGHTS LTD., priority 2020, published 2024).

For one test, the system named is Fusarium oxysporum. The test is described as follows: Microplate based screening of bioactivity against Fusarium oxysporum. In kind it is cell-based. The conditions noted are these: 10 μl of 250 ppm solution + 40 μl inoculum, activity grade x repeats x days of activity/252 x 100. As to the method: Diluted in DMSO Licochalcone C was added to microplate wells and mixed with freshly prepared spore suspension and growth of the fungus, starting from frozen spores, was monitored using the plate reader and by visual inspection. […]
Microplate Preparation for Licochalcone C Bioactivity Experiment: • 1) Take a stock solution of purified 1% Licochalcone C in DMSO from the −20 freezer and thaw it on the bench. • 2) Take 1 μl of stock solution of 1% Licochalcone C and dilute up to 250 ppm with 39 μl of water. • 3) Take 10 μl of the diluted (250 ppm) Licochalcone C solution into the wells of the microplate using a multi-pipette. • 4) Add 40 μl of vigorously mixed spore suspension inoculum to the wells of the microplate using a multi-pipette. • 5) Seal the plate with transparent sealer • 6) Shake the plate for 10 min at 2000 RPM to mix the materials with the hyphae suspension • 7) Centrifugate the plate at 1000RCF for is and stop to collect the liquid at the bottom of the plate • 8) Keep the microplate on the bench until it is read by the plate reader • 9) Read the plate using the plate reader • 10) Collect the plates on the bench • 11) Insert collected plates to a plastic box with cloth cover and put the box in the incubator at 25° C. […]

The subject of another test is Pseudomonas syringae. Briefly: Microplate based screening of bioactivity against Pseudomonas syringae. The conditions noted are these: 10 μl of 250 ppm solution + 40 μl inoculum, activity grade x repeats x days of activity/168 x 100. In kind it is cell-based. The procedure: Pseudomonas Suspension Preparation: • 1) Grow Pseudomonas on LBA plates at 28° C. for 2 days to get a single colony • 2) Transfer a single colony using a sterile toothpick into a 50 ml sterile tube containing 5 ml LB and grow for 24 at 28° C. and 150 RPM • 3) Chill the tube in the fridge for 1 h • 4) Add 7.5 ml of fridge cold, sterile, glycerol solution to the tube—to get 60% glycerol solution • 5) Mix well but gently to get perfect mixing—use vortex at 1000 RPM • 6) Aliquot 100 μl of bacteria suspension in 60% glycerol into 1.5 ml tubes—each aliquot should be enough for screening of 10 microplates • 7) Store the bacteria suspension in 60% glycerol at −20° C.
Pseudomonas Suspension Preparation for Bioactivity Screening Experiment: • 1) Take 1.5 ml tube with 100 μl frozen Pseudomonas suspension from the freezer and thaw it on ice • 2) Prepare in the hood 50 ml tubes with 40 ml fridge cold LB • 3) Mix 40 μl of bacteria suspension with 40 ml fridge cold LB in a 50 ml tube. This amount is enough for activity screening of 10 microplates • 4) Use this suspension for bioactivity screening experiments […]

As for `COc1c(/C=C/C(=O)c2ccc(O)cc2)ccc(O)c1CC=C(C)C` [Licochalcone C, (E)-3-[4-hydroxy-2-methoxy-3-(3-methylbut-2-enyl)phenyl]-1-(4-hydroxyphenyl)prop-2-en-1-one], the “Relative Activity value (%)” value in the test with Fusarium oxysporum is reported as 25%; in the test with Pseudomonas syringae, 50%.
